Target: human VR1 (Homo sapiens, UniProt Q8NER1)
Assay: Acid stimulation assay (acid-induced intracellular calcium change, FDSS 6000)
Format: cell-based
Conditions: final assay buffer pH5.8, 15 min pre-incubation, read-out: IC50 (nM) Low pH
Source text: VR1 antagonistic activity can be determined by the Ca^2+ imaging assay using human VR1 highly expressing cells. The cells that highly express human VR1 receptors are obtainable from several different conventional methods. The one standard method is cloning from human Dorsal Root Ganglion (DRG) or kidney according to the methods such as described in the journal article; Nature, 389, pp 816-824, 1997. Alternatively VR1 receptors highly expressing human keratinocytes are also known and published in the journal article (Biochemical and Biophysical Research Communications, 291, pp 124-129, 2002). […] Furthermore, the method to up regulate human VR1 gene, which is usually a silent gene or don't produce detectable level of VR1 receptors, is also available to obtain propriety cells. Such genetic modification method was described in detail; Nat. Biotechnol., 19, pp 440-445, 2001.
The cells that express human VR1 receptors were maintained in culture flask at 37° C. in an environment containing 5% CO2 until use in the assay. The intracellular Ca^2+ imaging assay to determine VR1 antagonistic activities were done by following procedures.
The culture medium was removed from the flask and fura-2/AM fluorescent calcium indicator was added to the flask at a concentration of 5 μM in the medium. The flask was placed in CO2 incubator and incubated for 1 hour. Then the cells expressing the human VR1 receptors were detached from the flask follow by washing with phosphate buffer saline, PBS(−) and re-suspended in assay buffer. The 80 tit of aliquot of cell suspension (3.75×10^5 cells/ml) was added to the assay plate and the cells were spun down by centrifuge (950 rpm, 20° C., 3 minutes).
(§1) The Acid-induced changes in the intracellular calcium concentration were monitored using FDSS 6000 (Hamamatsu Photonics, Japan), a fluorometric imaging system. The cell suspension in resting buffer (HBSS supplemented with 10 mM HEPES, pH 7.4) were pre-incubated with varying concentrations of the test compounds or resting buffer (buffer control) for 15 minutes at room temperature under the dark condition. The cells were automatically added the stimulating solution (HBSS supplemented with MES, final assay buffer pH5.8) by the FDSS 6000.
as §1, with “7.4) was” for “7.4) were”, “under” for “under the”, “dark conditions.” for “dark condition.”, “added to” for “added”

human VR1, sequence (Q8NER1 whole entry): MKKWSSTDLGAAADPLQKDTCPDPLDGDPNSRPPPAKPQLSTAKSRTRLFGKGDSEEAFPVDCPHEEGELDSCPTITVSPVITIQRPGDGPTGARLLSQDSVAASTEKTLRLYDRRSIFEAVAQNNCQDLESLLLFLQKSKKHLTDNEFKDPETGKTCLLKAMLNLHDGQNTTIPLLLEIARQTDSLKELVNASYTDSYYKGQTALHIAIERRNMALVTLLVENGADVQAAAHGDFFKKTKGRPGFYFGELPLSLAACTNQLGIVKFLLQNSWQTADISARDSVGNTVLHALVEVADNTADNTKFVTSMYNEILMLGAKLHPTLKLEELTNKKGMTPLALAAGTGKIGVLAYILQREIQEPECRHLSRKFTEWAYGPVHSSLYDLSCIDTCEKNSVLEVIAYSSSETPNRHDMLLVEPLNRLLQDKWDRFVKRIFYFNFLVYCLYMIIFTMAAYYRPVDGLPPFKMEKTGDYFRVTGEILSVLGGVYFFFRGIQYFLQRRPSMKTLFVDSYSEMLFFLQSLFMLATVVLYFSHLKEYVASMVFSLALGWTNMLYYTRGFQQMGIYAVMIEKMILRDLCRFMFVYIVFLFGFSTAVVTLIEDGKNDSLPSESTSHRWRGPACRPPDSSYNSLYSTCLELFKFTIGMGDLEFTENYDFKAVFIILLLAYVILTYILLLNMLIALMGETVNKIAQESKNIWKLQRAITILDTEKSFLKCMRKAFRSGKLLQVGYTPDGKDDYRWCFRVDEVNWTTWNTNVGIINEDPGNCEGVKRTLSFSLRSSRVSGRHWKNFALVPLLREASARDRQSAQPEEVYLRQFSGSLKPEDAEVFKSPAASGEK

| SMILES | IC50 [nM] |
| --- | --- |
| Cc1cc([C@@H](C)NC(=O)c2ccc3cc(F)ccc3c2)ccc1NS(C)(=O)=O [Example 18, 6-FLUORONAPHTHALENE-2-CARBOXYLIC ACID [(R)-1-(4-METHANESULFONYL-AMINO-3-METHYLPHENYL)ETHYL]AMIDE] | 83 |
| Cc1cc([C@@H](C)NC(=O)c2ccc3cc(Br)ccc3n2)ccc1NS(C)(=O)=O [Example 12, 6-BROMO-N-((1R)-1-{3-METHYL-4-[(METHYLSULFONYL)AMINO]PHENYL}ETHYL)-QUINOLINE-2-CARBOXAMIDE] | 444 |
| Cc1cc([C@@H](C)NC(=O)c2cnc3cc(C(C)(C)C)ccc3c2C)ccc1NS(C)(=O)=O [Example 42, 7-TERT-BUTYL-4-METHYL-N-((1R)-1-{3-METHYL-4-[(METHYLSULFONYL)AMINO]PHENYL}-ETHYL)QUINOLINE-3-CARBOXAMIDE] | 532 |
| Cc1cc([C@@H](C)NC(=O)c2ccc3cc(C(C)(C)C)ccc3c2)ncc1NS(C)(=O)=O [Example 40, 6-TERT-BUTYL-N-((1R)-1-{4-METHYL-5-[(METHYLSULFONYL)AMINO]PYRIDIN-2-YL}ETHYL)-2-NAPHTHAMIDE] | 31 |
| C[C@@H](NC(=O)c1cnc2cc(C(F)(F)F)ccc2c1)c1cc(F)c(NS(C)(=O)=O)c(F)c1 [Example 27, N-((1R)-1-{3,5-DIFLUORO-4-[(METHYLSULFONYL)AMINO]PHENYL}ETHYL)-7-(TRIFLUOROMETHYL)QUINOLINE-3-CARBOXAMIDE] | 105 |
| Cc1cc([C@@H](C)NC(=O)c2ccc3nc(C(F)(F)F)cc(N4CCC(F)(F)CC4)c3c2)c(F)cc1NS(C)(=O)=O [Example 73, 4-(4,4-DIFLUORO-PIPERIDIN-1-YL)-2-TRIFLUOROMETHYL-QUINOLINE-6-CARBOXYLIC ACID [(R)-1-(2-FLUORO-4-METHANESULFONYLAMINO-5-METHYL-PHENYL)-ETHYL]-AMIDE] | 29 |
| C[C@@H](NC(=O)c1ccc2cc(C(F)(F)F)ccc2n1)c1cc(F)c(NS(C)(=O)=O)c(F)c1 [Example 3, ((1R)-1-{3,5-DIFLUORO-4-[(METHYLSULFONYL)AMINO]PHENYL}ETHYL)-6-(TRIFLUORO-METHYL)QUINOLINE-2-CARBOXAMIDE] | 4 |
| Cc1cc([C@@H](C)NC(=O)c2ccc3nc(C(C)C)ccc3c2)ccc1NS(C)(=O)=O [Example 35, 2-ISOPROPYL-N-((1R)-1-{3-METHYL-4-[(METHYLSULFONYL)AMINO]PHENYL}ETHYL)-QUINOLINE-6-CARBOXAMIDE] | 5 |
| Cc1cc([C@@H](C)NC(=O)c2ccc3cc(C(F)(F)F)ccc3c2)ncc1NS(C)(=O)=O [Example 54, N-((1R)-1-{4-METHYL-5-[(METHYLSULFONYL)AMINO]PYRIDIN-2-YL}ETHYL)-6-(TRIFLUOROMETHYL)-2-NAPHTHAMIDE] | 12 |
| Cc1cc([C@@H](C)NC(=O)c2cnc3cc(C(F)(F)F)ccc3c2)c(Cl)cc1NS(C)(=O)=O [Example 53, (R)—N-(1-(2-CHLORO-5-METHYL-4-(METHYLSULFONAMIDO)PHENYL)ETHYL)-7-(TRIFLUOROMETHYL)QUINOLINE-3-CARBOXAMIDE] | 36 |
| Cc1cc([C@@H](C)NC(=O)c2cnc3ccc(C(C)(C)C)cc3c2)ccc1NS(C)(=O)=O [Example 29, 6-TERT-BUTYL-N-((1R)-1-{3-METHYL-4-[(METHYLSULFONYL)AMINO]PHENYL}ETHYL)-QUINOLINE-3-CARBOXAMIDE] | 231 |
| Cc1cc([C@@H](C)NC(=O)c2ccc3cc(C(C)(C)C)ccc3n2)c(F)cc1NS(C)(=O)=O [Example 14, 6-TERT-BUTYL-N-((1R)-1-{2-FLUORO-5-METHYL-4-[(METHYLSULFONYL)AMINO]PHENYL}-ETHYL)QUINOLINE-2-CARBOXAMIDE] | 288 |
| CCOc1ccc2cc(C(=O)N[C@H](C)c3ccc(NS(C)(=O)=O)c(C)c3)ccc2n1 [Example 44, 2-ETHOXY-N-((1R)-1-{3-METHYL-4-[(METHYLSULFONYL)AMINO]PHENYL}ETHYL)-QUINOLINE-6-CARBOXAMIDE] | 15 |
| Cc1cc([C@@H](C)NC(=O)c2ccc3cc(C(C)(C)C)ccc3c2)ccc1NS(C)(=O)=O [Example 1, 6-TERT-BUTYL-N-((1R)-1-{3-METHYL-4-[(METHYLSULFONYL)AMINO]PHENYL}ETHYL)-2-NAPHTHAMIDE] | 3 |
| Cc1cc([C@@H](C)NC(=O)c2ccc3cc(C(F)(F)F)ccc3c2)ccc1NS(C)(=O)=O [Example 51, N-((1R)-1-{3-METHYL-4-[(METHYLSULFONYL)AMINO]PHENYL}ETHYL)-6-(TRIFLUORO-METHYL)-2-NAPHTHAMIDE] | 1 |
| Cc1cc([C@@H](C)NC(=O)c2ccc3nc(C(F)(F)F)cc(N4CCC(C(F)(F)F)CC4)c3c2)c(F)cc1NS(C)(=O)=O [Example 76, 2-TRIFLUOROMETHYL-4-(4-TRIFLUOROMETHYL-PIPERIDIN-1-YL)-QUINOLINE-6-CARBOXYLIC ACID [(R)-1-(2-FLUORO-4-METHANESULFONYLAMINO-5-METHYL-PHENYL)-ETHYL]-AMIDE] | 48 |

Other lines, results leading:

| IC50 [nM] | SMILES |
| --- | --- |
| 60 | Cc1cc([C@@H](C)NC(=O)c2ccc3nc(C(F)(F)F)nc(N4CCN(c5cccc(Cl)c5)CC4)c3c2)c(F)cc1NS(C)(=O)=O [Example 85, 4-[4-(3-CHLORO-PHENYL)-PIPERAZIN-1-YL]-2-TRIFLUOROMETHYL-QUINAZOLINE-6-CARBOXYLIC ACID [(R)-1-(2-FLUORO-4-METHANESULFONYLAMINO-5-METHYL-PHENYL)-ETHYL]-AMIDE] |
| 24 | Cc1cc([C@@H](C)NC(=O)c2ccc3nc(C(F)(F)F)cc(N4CC(F)(F)C4)c3c2)c(F)cc1NS(C)(=O)=O [Example 92, 4-(3,3-DIFLUOROAZETIDIN-1-YL)-2-TRIFLUOROMETHYLQUINOLINE-6-CARBOXYLIC ACID [(R)-1-(2-FLUORO-4-METHANESULFONYLAMINO-5-METHYLPHENYL)-ETHYL]AMIDE] |
| 630 | Cc1cc([C@@H](C)NC(=O)c2ccc3nc(C(F)(F)F)cc(N4CCC(CO)CC4)c3c2)c(F)cc1NS(C)(=O)=O [Example 99, 4-(4-HYDROXYMETHYL-PIPERIDIN-1-YL)-2-TRIFLUOROMETHYL-QUINOLINE-6-CARBOXYLIC ACID [(R)-1-(2-FLUORO-4-METHANESULFONYLAMINO-5-METHYL-PHENYL)-ETHYL]-AMIDE] |
| 111 | Cc1cc([C@@H](C)NC(=O)c2cnc3cc(C4CC4)cnc3c2)c(F)cc1NS(C)(=O)=O [Example 87, 7-CYCLOPROPYL-[1.5]NAPHTHYRIDINE-3-CARBOXYLIC ACID [(R)-1-(2-FLUORO-4-METHANESULFONYLAMINO-5-METHYL-PHENYL)-ETHYL]-AMIDE] |
| 94 | Cc1cc([C@@H](C)NC(=O)c2ccc3nc(N4CCC(F)(F)CC4)ccc3c2)c(F)cc1NS(C)(=O)=O [Example 110, (R)-2-(4,4-DIFLUOROPIPERIDIN-1-YL)-N-(1-(2-FLUORO-5-METHYL-4-(METHYLSULFONAMIDO)PHENYL)ETHYL)QUINOLINE-6-CARBOXAMIDE] |
| 50 | COc1ccccc1N1CCN(c2nc(C(F)(F)F)nc3ccc(C(=O)N[C@H](C)c4cc(C)c(NS(C)(=O)=O)cc4F)cc23)CC1 [Example 88, 4-[4-(2-METHOXY-PHENYL)-PIPERAZIN-1-YL]-2-TRIFLUOROMETHYL-QUINAZOLINE-6-CARBOXYLIC ACID [(R)-1-(2-FLUORO-4-METHANESULFONYLAMINO-5-METHYL-PHENYL)-ETHYL]-AMIDE] |
| 5 | Cc1cc([C@@H](C)NC(=O)c2ccc3nc(C4(C)CC4)ccc3c2)c(F)cc1NS(C)(=O)=O [Example 108, N-((1R)-1-{2-FLUORO-5-METHYL-4-[(METHYLSULFONYL)AMINO]PHENYL}ETHYL)-2-(1-METHYLCYCLOPROPYL)QUINOLINE-6-CARBOXAMIDE] |
| 41 | Cc1cc([C@@H](C)NC(=O)c2ccc3cc(C(C)(O)C(F)(F)F)ccc3c2)c(F)cc1NS(C)(=O)=O (stereo partly drawn) [Example 101] |
| 35 | Cc1cc([C@@H](C)NC(=O)c2ccc3nc(C(F)(F)F)cc(OC4CCOCC4)c3c2)c(F)cc1NS(C)(=O)=O [Example 94, 4-(TETRAHYDRO-PYRAN-4-YLOXY)-2-TRIFLUOROMETHYL-QUINOLINE-6CARBOXYLIC ACID [(R)-1-(2-FLUORO-4-METHANESULFONYLAMINO-5-METHYL-PHENYL)-ETHYL]-AMIDE] |
| 748 | Cc1cc([C@@H](C)NC(=O)c2ccc3nc(N4CCOCC4)ccc3c2)c(F)cc1NS(C)(=O)=O [Example 81, ((R)—N-(1-(2-FLUORO-5-METHYL-4-(METHYLSULFONAMIDO)PHENYL)ETHYL)-2-MORPHOLINOQUINOLINE-6-CARBOXAMIDE] |
| 7 | Cc1cc([C@@H](C)NC(=O)c2ccc3nc(C(F)(F)F)nc(N4CC(C)OC(C)C4)c3c2)c(F)cc1NS(C)(=O)=O (stereo partly drawn) [Example 86, 4-(2,6-DIMETHYL-MORPHOLIN-4-YL)-2-TRIFLUOROMETHYL-QUINAZOLINE-6-CARBOXYLIC ACID [(R)-1-(2-FLUORO-4-METHANESULFONYLAMINO-5-METHYL-PHENYL)-ETHYL]-AMIDE] |

Source: patent publication US20120088746A1, “AMIDE DERIVATIVES AS ION-CHANNEL LIGANDS AND PHARMACEUTICAL COMPOSITIONS AND METHODS OF USING THE SAME” (PFIZER INC., priority 2006, published 2012)
